Data as given in ChEMBL document CHEMBL3351864, “Beyond paraquats: dialkyl 3,3'- and 3,4'-bipyridinium amphiphiles as antibacterial agents” (2014).
Blank lines part the entries; values can stand above or below the compound they belong to.

Columns and labels:
Type in all cases: functional
[1] = test system: Pseudomonas aeruginosa; assay: Antibacterial activity against Pseudomonas aeruginosa PAO1 WT after 72 hrs by broth microdilution method; conditions: PAO1, 72 h
[2] = test system: Staphylococcus aureus; assay: Antibacterial activity against Staphylococcus aureus SH1000 after 72 hrs by broth microdilution method; conditions: SH1000, 72 h
[3] = test system: Enterococcus faecalis; assay: Antibacterial activity against Enterococcus faecalis OG1RF after 72 hrs by broth microdilution method
[4] = test system: Escherichia coli; assay: Antibacterial activity against Escherichia coli MC4100 after 72 hrs by broth microdilution method; conditions: MC4100, 72 h

Compound: CCCCCCCCCCCC[n+]1cccc(-c2ccc[n+](Cc3ccccc3)c2)c1
MIC [1]: 250 µM | MIC [2]: 8 µM | MIC [3]: 63 µM | MIC [4]: 32 µM

Compound: CCCCCCCCCCCC[n+]1cccc(-c2cccnc2)c1
MIC [1]: 250 µM | MIC [2]: 8 µM | MIC [3]: 63 µM | MIC [4]: 63 µM

Compound: CCCCCCCC[n+]1cccc(-c2ccc[n+](CCCCCCCC)c2)c1
MIC [1]: > 500 µM | MIC [2]: 32 µM | MIC [3]: 125 µM | MIC [4]: 250 µM

Compound: CCCCCCCCCCCCCC[n+]1cccc(-c2ccc[n+](CCCCCCCCCCCCCC)c2)c1
MIC [1]: 16 µM | MIC [2]: 2 µM | MIC [3]: 2 µM | MIC [4]: 4 µM

Compound: CCCCCCCCCCCC[N+](C)(C)Cc1ccccc1 [BENZODODECINIUM CHLORIDE]
MIC [1]: 63 µM | MIC [2]: 8 µM | MIC [3]: 8 µM | MIC [4]: 32 µM

Compound: CCCCCCCCCCCCCC[n+]1ccc(-c2ccc[n+](CCCCCCCCCCCCCC)c2)cc1
MIC [1]: 16 µM | MIC [2]: 2 µM | MIC [3]: 1 µM | MIC [4]: 2 µM

Compound: CCCCCCCCCCCCCCCC[n+]1ccc(-c2ccc[n+](CCCCCCCCCCCCCCCC)c2)cc1
MIC [1]: 63 µM | MIC [2]: 2 µM | MIC [3]: 4 µM | MIC [4]: 16 µM

Compound: CCCCCCCC[n+]1ccc(-c2ccc[n+](CCCCCCCC)c2)cc1
MIC [1]: > 500 µM | MIC [2]: 125 µM | MIC [3]: 125 µM | MIC [4]: 125 µM

Compound: CCCCCCCCCCCC[n+]1cccc(-c2ccc[n+](C)c2)c1
MIC [1]: 250 µM | MIC [2]: 125 µM | MIC [3]: 125 µM | MIC [4]: 125 µM

Compound: CCCCCCCCCCCCCCCC[n+]1cccc(-c2ccc[n+](CCCCCCCCCCCCCCCC)c2)c1
MIC [1]: 16 µM | MIC [2]: 2 µM | MIC [3]: 1 µM | MIC [4]: 8 µM

Other lines, results leading:

MIC [1]: 8 µM | MIC [2]: 2 µM | MIC [3]: 1 µM | MIC [4]: 2 µM
Compound: CCCCCCCCCCCCCC[n+]1cccc(-c2ccc[n+](CCCCCCCCCCCC)c2)c1

MIC [1]: 4 µM | MIC [2]: 2 µM | MIC [3]: 2 µM | MIC [4]: 2 µM
Compound: CCCCCCCCCCCC[n+]1cccc(-c2ccc[n+](CCCCCCCCCC)c2)c1

MIC [1]: 8 µM | MIC [2]: 2 µM | MIC [3]: 2 µM | MIC [4]: 2 µM
Compound: CCCCCCCCCC[n+]1cccc(-c2ccc[n+](CCCCCCCCCC)c2)c1

MIC [1]: 2 µM | MIC [2]: 1 µM | MIC [3]: 1 µM | MIC [4]: 0.5 µM
Compound: CCCCCCCCCCCC[n+]1ccc(-c2ccc[n+](CCCCCCCCCCCC)c2)cc1

MIC [1]: 16 µM | MIC [2]: 2 µM | MIC [3]: 2 µM | MIC [4]: 2 µM
Compound: CCCCCCCCCC[n+]1ccc(-c2ccc[n+](CCCCCCCCCC)c2)cc1

MIC [1]: 2 µM | MIC [2]: 0.5 µM | MIC [3]: 1 µM | MIC [4]: 1 µM
Compound: CCCCCCCCCCC[n+]1cccc(-c2ccc[n+](CCCCCCCCCCC)c2)c1

MIC [1]: 1 µM | MIC [2]: 0.5 µM | MIC [3]: 0.5 µM | MIC [4]: 0.5 µM
Compound: CCCCCCCCCCC[n+]1ccc(-c2ccc[n+](CCCCCCCCCCC)c2)cc1

MIC [1]: 2 µM | MIC [2]: 1 µM | MIC [3]: 1 µM | MIC [4]: 1 µM
Compound: CCCCCCCCCCCC[n+]1cccc(-c2ccc[n+](CCCCCCCCCCCC)c2)c1
